In patent US4179441A, “Fungidal and herbicidal 2-substituted-3-oxa-3aλ^4, 4-dithia-6-halo-1,5-diazapentalene” (Chevron Research Company, priority 1977, dated 1979):
Where two headings read alike, the source gives them in different places.

Key:
Phytophthora infestans = experiment: whole plant or invertebrate; type: in vivo; conditions: in Solanum lycopersicum, 168 h, read-out: Tomato Late Blight % Control
Alternaria solani = experiment: Tomato Early Blight; type: in vivo; conditions: 288 h, read-out: Tomato Early blight % Control
Botrytis cinerea = Botrytis cinerea control (detached horsebean leaves); type: in vivo; conditions: 3 to 5 days
Experimental: Compounds of the invention were tested for Botrytis cinerea control using detached, well-developed primary leaves of a 4-6 week old horsebean plant. […] The leaves were allowed to dry while the filter paper was kept moist by adding water as required. The treated leaves were then inoculated with the spores of Botrytis cinerea fungus grown on potato. The plate was covered after inoculation and kept at 23.5° C. The filter-paper lining of the plate was kept saturated with water throughout the test. The rate of disease incidence was determined in 3 to 5 days, when the disease symptoms were fully evident on non-treated check leaves. […]

Erysiphe polygoni = experiment: Powdery Mildew (bean seedlings); type: in vivo; conditions: 240 h, 250 ppm spray on bean seedlings, about 10 days, relative to untreated check plants
Description: The powdery mildew test was made using bean seedlings (var. Bountiful) with well-developed primary leaves. The pathogen was Erysiphe polygoni. The bean seedlings were sprayed with a 250 ppm solution of the test compound in an acetone-water mixture containing a nonionic emulsifier. The treated plants were inoculated one day after spray application of the test compound with the pathogen. […] The rate of infection on the leaves was made after about 10 days. The percent disease control provided by a given test compound was based on the disease reduction relative to untreated check plants.

Pythium ultimum = experiment: Mycelia Inhibition; type: cell-based; conditions: mycelial inhibition, 25° C., 24 hours
Septoria apii = conditions: in vivo
Rhizoctonia solani = experiment: Mycelia Inhibition; type: cell-based; conditions: mycelial inhibition, 25° C., 24 hours
Aspergillus niger = experiment: Mycelia Inhibition; type: cell-based; conditions: mycelial inhibition, 25° C., 24 hours
Fusarium moniliforme = experiment: Mycelia Inhibition; type: cell-based; conditions: mycelial inhibition, 25° C., 24 hours
[1] = 250 ppm spray, inoculated one day later, based on untreated check plants

SMILES | pest or weed control at 250 ppm (Phytophthora infestans) | pest or weed control at 250 ppm (Alternaria solani; [1]) | Botrytis Cinerea, micrograms/cm^2 for 99% control of the fungus (Botrytis cinerea) | pest or weed control at 250 ppm (Erysiphe polygoni) | Pythium ultimum, micrograms/cm^2 for 99% control of the fungus (Pythium ultimum) | Celery Late Blight % Control (Septoria apii) | Rhizoctonia solani, micrograms/cm^2 for 99% control of the fungus (Rhizoctonia solani) | Aspergillus niger, micrograms/cm^2 for 99% control of the fungus (Aspergillus niger) | Fusarium moniliforme, micrograms/cm^2 for 99% control of the fungus (Fusarium moniliforme) | pest or weed control at 250 ppm (Alternaria solani)
ClC1=NSS2=C1N=C(c1ccc(Cl)c(Cl)c1)O2 (stereo not drawn) [Compound 1] | 60% | 39% | – | – | – | – | – | – | – | –
Fc1ccccc1C1=NC2=S(O1)SN=C2Cl (stereo not drawn) [Compound 2] | 93% | – | 1.6 micrograms/cm^2 | 35% | – | – | – | – | – | –
ClC1=NSS2=C1N=C(c1ccc(Cl)cc1)O2 (stereo not drawn) [Compound 3] | 98% | – | 1.1 micrograms/cm^2 | 76% | – | – | – | – | – | –
FC(F)(F)c1cccc(C2=NC3=S(O2)SN=C3Cl)c1 (stereo not drawn) [Compound 4] | – | – | – | 80% | > 1.7 micrograms/cm^2 | 23% | 0.65 micrograms/cm^2 | > 1.7 micrograms/cm^2 | > 1.7 micrograms/cm^2 | –
ClCC1=NC2=S(O1)SN=C2Cl (stereo not drawn) [Compound 5, 2-chloromethyl-3-oxa-3aλ^4,4-dithia-6chloro-1,5-diazapentalene] | 81% | 73% | – | – | 0.12 micrograms/cm^2 | – | 0.38 micrograms/cm^2 | 1.1 micrograms/cm^2 | > 1.7 micrograms/cm^2 | –
ClC1=NSS2=C1N=C(c1ccccc1)O2 (stereo not drawn) [Compound 6] | 93% | – | – | 100% | – | – | – | – | – | 75%
O=[N+]([O-])c1ccc(C2=NC3=S(O2)SN=C3Cl)cc1 (stereo not drawn) [Compound 7] | 90% | 23% | – | – | – | – | – | – | – | –
ClC1=NSS2=C1N=C(c1ccco1)O2 (stereo not drawn) [Compound 8, 2-(2-furyl)-3-oxa-3aλ^4,4-dithia-6-chloro-1,5-diazapentalene] | – | 56% | 0.15 micrograms/cm^2 | – | 0.29 micrograms/cm^2 | – | 0.34 micrograms/cm^2 | 0.49 micrograms/cm^2 | 0.95 micrograms/cm^2 | –
ClC1=NSS2=C1N=C(CI)O2 (stereo not drawn) [Compound 9, 2-iodomethyl-3-oxa-3aλ^4,4-dithia-6-chloro-1,5-diazapentalene] | 62% | 81% | 0.37 micrograms/cm^2 | – | 0.12 micrograms/cm^2 | 71% | 0.6 micrograms/cm^2 | 0.52 micrograms/cm^2 | 0.82 micrograms/cm^2 | –
ClC1=NSS2=C1N=C(CSc1ccc(Cl)cc1)O2 (stereo not drawn) [Compound 10, 2-(4-chlorophenylthio-methyl)-3-oxa-3aλ^4,4-dithia-6-chloro-1,5-diazapentalene] | 81% | – | – | – | > 1.7 micrograms/cm^2 | – | 1.2 micrograms/cm^2 | 0.52 micrograms/cm^2 | > 1.7 micrograms/cm^2 | –
ClC1=NSS2=C1N=C(CSCc1ccc(Cl)cc1)O2 (stereo not drawn) [Compound 11] | 93% | – | – | – | > 1.7 micrograms/cm^2 | – | 0.5 micrograms/cm^2 | 0.46 micrograms/cm^2 | > 1.7 micrograms/cm^2 | –
ClC1=NSS2=C1N=C(c1cccs1)O2 (stereo not drawn) [Compound 12] | 89% | 68% | 1.4 micrograms/cm^2 | 54% | > 1.7 micrograms/cm^2 | – | 0.5 micrograms/cm^2 | 1.2 micrograms/cm^2 | > 1.7 micrograms/cm^2 | –
